In US8158621B2, “Methods of treating or preventing autoimmune diseases with 2,4-pyrimidinediamine compounds” (Rigel Pharmaceuticals, Inc., priority 2002, dated 2012):

Legend:
[1] = system: cultured human mast cells (CHMC); assay: CHMC low cell density ionomycin activation: tryptase assay; type: cell-based; conditions: read-out: CHMC Ionomycin Tryptase
[2] = system: bone marrow derived mast cells (BMMC); assay: BMMC high cell density IgE activation: hexosaminidase; type: cell-based, mouse; conditions: high cell density; read-out: BMMC anti-IgE Hexos.
Procedure: After sensitizing, cells are counted, pelleted (1000 rpm, 5-10 minutes), and resuspended at 1-3×10^6 cells/ml in MT buffer. Add 100 ul of cell suspension to each well and 100 ul of compound dilutions. The final vehicle concentration is 0.5% DMSO. Incubate at 37° C. (5% CO2) for 1 hour. After 1 hour of compound treatment, stimulate cells with 6× stimulus (60 ng/ml DNP-BSA). Mix wells with the cells and allow plates to incubate at 37° C. (5% CO2) for one hour. After 1 hour incubation, pellet cells (10 minutes, 1000 RPM) and collect 200 ul per well of the supernatant, being careful not to disturb pellet, and transfer to a clean tube or 96-well plate. Place the supernatant plate on ice. During the 4-5 hour step (see next) perform the hexosiminidase assay. Resuspend cell pellet in 240 ul WEI-conditioned media containing 0.5% DMSO and corresponding concentration of compound. Incubate BMMC cells for 4-5 hours at 37° C. (5% CO2). After incubation, pellet cells (1000 RPM, 10 minutes) and collect 225 ul per well and place in −80° C. until ready to perform ELISAS. ELISAS are performed on appropriately diluted samples (determined empirically for each donor cell population so that the sample measurement falls within the standard curve) following the supplier's instructions.
Add 50 uL of BMMC cell supernatant (see above) to the hexoseaminidase substrate, place at 37° C. for 30 minutes and read the plate at 5, 10, 15, and 30 minutes on a spectrophotometer.

Syk kinase = target: T1, Syk kinase (Homo sapiens, UniProt P43405); assay: Syk kinase biochemical fluorescence polarization assay; conditions: isolated Syk kinase, fluorescence polarization, 4 uM ATP
T1 construct: purchased Upstate, Lake Placid NY

[3] = system: Human Jurkat T-cells (clone N); assay: Jurkat T-cell activation (anti-TCR, CD69 upregulation); type: cell-based
Summary of the method: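 Jurkat cells in RPMI + 5% FBS preincubated with compound 1 h at 37 °C, then stimulated with anti-TCR C305 at 500 ng/ml for 20 h. CD69 surface expression stained with anti-CD69-APC and read by flow cytometry; IC50 versus solvent-only control.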

[4] = system: cultured human mast cells (CHMC); assay: CHMC low cell density IgE activation: tryptase assay; type: cell-based; conditions: read-out: CHMC anti-IgE Tryptase
Summary of the method: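 Low-density CHMC assay: donor-adjusted 1000-1500 cells/well, MT buffer, 1 hr 37° C preincubation; anti-IgE stimulus 30 min 37° C versus MT-only controls; supernatant tryptase by substrate, 30 min RT.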

[5] = Mouse Reverse Passive Arthus reaction (RPA reaction); type: in vivo, C57BL/6 mice; conditions: oral
Procedure: In this model system, test compounds are administered at several timepoints prior to administration of Abs and Ags. A solution of rabbit anti-OVA IgG (50 μg in 25 μl/mouse) is injected intradermally, and immediately following is an intravenous injection of chicken egg albumin (20 mg/kg of body weight) in a solution containing 1% Evans blue dye. The degree of edema and hemorrhage is measured in the dorsal skin of C57BL/6 mice using the Evan's Blue dye as an indicator of local tissue damage. Purified polyclonal rabbit IgG is used as a control.
Pretreatment time, in which the test compounds are administered prior to Ab/Ag challenge, depends on the pharmacokinetic (PK) properties of each individual compound. Four hours after induction of Arthus reaction, mice are euthanized, and tissues are harvested for assessment of edema.

[6] = 50 mg/kg, pretreatment time 1.5 hrs
[7] = 50 mg/kg, pretreatment time 1.5 hrs + 4 hours
[8] = 100 mg/kg, pretreatment time 1.5 hrs
[9] = 100 mg/kg, pretreatment time 1.5 hrs + 4 hours
[10] = 100 mg/kg, pretreatment time 1 hrs + 4 hours

IC50 ([1]; low cell density) [µM]	IC50 (Syk kinase) [nM]	IC50 ([4]; low cell density) [nM]	SMILES	further results
> 10	–	–	COc1ccc(Nc2nc(Nc3cc(Cl)c(O)c(Cl)c3)ncc2F)cc1Cl [Compound R927044]	IC50 [2]: 4.28 µM
> 10	–	–	CCOC(=O)CCn1ncc2cc(Nc3ncc(F)c(Nc4ccc(OC)nc4OC)n3)ccc21 [Compound R935381]	IC50 [2]: 7.74 µM
19	449	316	Nc1cccc(Nc2nc(Nc3cccc(O)c3)ncc2F)n1 [Compound R927083]	–
30.2	767	421	Fc1cnc(Nc2ccc3cc[nH]c3c2)nc1Nc1ccc(Cl)c(Cl)c1 [Compound R926975]	–
5.17	620	222	COc1cc(Nc2ncc(F)c(Nc3ccc(Cl)c(Cl)c3)n2)cc(OC)c1 [Compound R927060]	–
5.24	–	54	COc1cc(Nc2ncc(F)c(Nc3ccc4c(c3)NC(=O)C(C)(C)O4)n2)cc(OC)c1.Cc1ccc(S(=O)(=O)O)cc1 [Compound R927070]	% inhibition to vehicle control Edema Size ± SEM ([5]; 50 mg/kg, pretreatment time 1 hrs): 56 ± 15%; Plasma Concentration ± SEM (ng/ml) Exposure = Pretreatment Time + 4 hours ([5]; 50 mg/kg, pretreatment time 1 hrs + 4 hours): 1755 ± 310 ng/mL; % inhibition to vehicle control Edema Size ± SEM [5, 6]: 31.1 ± 17.29%; % inhibition to vehicle control Edema Size ± SEM ([5]; 100 mg/kg, pretreatment time 1 hrs): 61 ± 14%; Plasma Concentration ± SEM (ng/ml) Exposure = Pretreatment Time + 4 hours [5, 10]: 2851 ± 712 ng/mL; % inhibition to vehicle control Edema Size ± SEM [5, 8]: 55.5 ± 7.7%; Plasma Concentration ± SEM (ng/ml) Exposure = Pretreatment Time + 4 hours [5, 9]: 4095 ± 1187 ng/mL
30	104	163	COc1ccc(Nc2ncc(F)c(Nc3ccc4c(c3)NC(=O)[C@H](C)O4)n2)cc1Cl [Compound R909321]	–
> 10	57	60	COc1cc(Nc2ncc(F)c(Nc3ccc4c(c3)NC(=O)C(F)(F)O4)n2)cc(OC)c1 [Compound R926970]	–
> 10	312	256	COc1ccc(Nc2ncc(F)c(Nc3cccc(N)n3)n2)cc1Cl [Compound R927082]	–
4.72	158	126	COc1c(Cl)cc(Nc2ncc(F)c(Nc3ccc4c(c3)NC(=O)C(F)(F)O4)n2)cc1Cl [Compound R927061]	–
8.8	602	284	COc1cc(Nc2ncc(F)c(Nc3cccc(N)n3)n2)cc(OC)c1 [Compound R927077]	–

Continued, compound first:

SMILES	IC50 ([1]; low cell density) [µM]	IC50 (Syk kinase) [nM]	IC50 ([4]; low cell density) [nM]	further results
CNC(=O)COc1cccc(Nc2ncc(F)c(Nc3ccc(N4CCN(C(=O)OC)CC4)cc3)n2)c1 [Compound R945368]	> 10	–	–	IC50 [2]: 1.71 µM
CNC(=O)COc1cccc(Nc2ncc(F)c(Nc3ccc(OC(F)(F)F)c(C(=O)N4CCCCC4)c3)n2)c1 [Compound R950409]	> 10	–	–	IC50 [2]: 3.24 µM
Cc1cc(Nc2ncc(F)c(Nc3ccc4c(c3)NC(=O)C(C)(C)O4)n2)cc(Cl)c1O [Compound R940358]	4.3	23	30	IC50 [3]: 159 nM
CC(=O)N1CCN(c2ccc(Nc3ncc(F)c(NC4CC4)n3)cc2)CC1 [Compound R945370]	> 10	1050	522	–
CNC(=O)COc1cccc(Nc2ncc(F)c(NC3CC3)n2)c1 [Compound R945372]	> 10	–	–	IC50 [2]: 0.923 µM
Cc1ccc(S(=O)(=O)O)cc1.Cc1ccc(S(=O)(=O)O)cc1.OCCCn1ncc2cc(Nc3ncc(F)c(Nc4ccc(Cl)c(Cl)c4)n3)ccc21 [Compound R935451]	> 10	–	> 10000	% inhibition to vehicle control Edema Size ± SEM ([5]; 10 mg/kg, pretreatment time 1.5 hrs): −14.4 ± 13.3%; Plasma Concentration ± SEM (ng/ml) Exposure = Pretreatment Time + 4 hours ([5]; 10 mg/kg, pretreatment time 1.5 hrs + 4 hours): 14.4 ± 1.8 ng/mL; % inhibition to vehicle control Edema Size ± SEM ([5]; 30 mg/kg, pretreatment time 1.5 hrs): −30.6 ± 15.4%; Plasma Concentration ± SEM (ng/ml) Exposure = Pretreatment Time + 4 hours ([5]; 30 mg/kg, pretreatment time 1.5 hrs + 4 hours): 78.0 ± 32.0 ng/mL; % inhibition to vehicle control Edema Size ± SEM [5, 6]: 74.9 ± 7.5%; Plasma Concentration ± SEM (ng/ml) Exposure = Pretreatment Time + 4 hours [5, 7]: 385.0 ± 149.4 ng/mL; % inhibition to vehicle control Edema Size ± SEM [5, 8]: 77.1 ± 8.0%; Plasma Concentration ± SEM (ng/ml) Exposure = Pretreatment Time + 4 hours [5, 9]: 1459.0 ± 444.4 ng/mL
CC(=O)N(C)c1ccc(Nc2ncc(F)c(Nc3ccc4c(n3)NC(=O)C(C)(C)O4)n2)cc1 [Compound R945417]	> 10	> 10000	2520	–
CNC(=O)CCn1ncc2cc(Nc3ncc(F)c(Nc4ccc(F)c(F)c4)n3)ccc21 [Compound R935385]	> 10	–	–	IC50 [2]: 0.217 µM
CNCCNC(=O)c1cc(Nc2nc(Nc3cccc(OCC(=O)NC)c3)ncc2F)ccc1OC(F)(F)F [Compound R950408]	> 10	–	–	IC50 [2]: 4.82 µM
COC(=O)N1CCN(c2ccc(Nc3ncc(F)c(NC4CC4)n3)cc2)CC1 [Compound R945371]	> 10	1300	713	–
CC(=O)N1CCN(c2ccc(Nc3ncc(F)c(Nc4ccc5c(n4)NC(=O)CO5)n3)cc2)CC1 [Compound R945391]	> 10	10	94	–
CC1(C)Oc2ccc(Nc3ncc(F)c(Nc4ccc5c(c4)NC(=O)C(F)(F)O5)n3)cc2NC1=O [Compound R940367]	14.1	13	117	–
COc1ccc(Nc2nc(Nc3ccc4cc[nH]c4c3)ncc2F)cc1Cl.Cc1ccc(S(=O)(=O)O)cc1 [Compound R927087]	> 10	–	436	% inhibition to vehicle control Edema Size ± SEM [5, 6]: −10.4 ± 14.4%; Plasma Concentration ± SEM (ng/ml) Exposure = Pretreatment Time + 4 hours [5, 7]: 26.9 ± 8.0 ng/mL; % inhibition to vehicle control Edema Size ± SEM [5, 8]: 28.7 ± 16.6%; Plasma Concentration ± SEM (ng/ml) Exposure = Pretreatment Time + 4 hours [5, 9]: 28.7 ± 10.8 ng/mL
O=C1Nc2cc(Nc3nc(Nc4ccc5cn[nH]c5c4)ncc3F)ccc2OC1(F)F [Compound R940364]	> 10	1	46	–
COC(=O)N1CCN(c2ccc(Nc3ncc(F)c(Nc4ccc5c(n4)NC(=O)CO5)n3)cc2)CC1 [Compound R945392]	> 10	14	85	–
CNC(=O)CCn1ncc2cc(Nc3ncc(F)c(Nc4ccc5c(c4)NC(=O)C(C)(C)O5)n3)ccc21 [Compound R935433]	16.2	70	106	–
O=C1Nc2cc(Nc3nc(Nc4cc(Cl)c(O)c(Cl)c4)ncc3F)ccc2OC1(F)F [Compound R927048]	> 10	2	50	–
CNC(=O)C1Cc2cc(Nc3ncc(F)c(Nc4ccc(OC(C)C)cc4)n3)ccc2O1 (stereo not drawn) [Compound R926956]	–	380	–	IC50 ([1]; Low Density): > 10 µM; IC50 [3]: 749 nM; IC50 ([4]; Low Density): 211 nM
Cn1ncc2ccc(Nc3ncc(F)c(Nc4ccc5c(c4)NC(=O)C(F)(F)O5)n3)cc21 [Compound R940368]	1.58	1	25	–
CC1(C)Oc2ccc(Nc3nc(Nc4ccc5cn[nH]c5c4)ncc3F)cc2NC1=O.O=S(=O)(O)c1ccccc1 [Compound R935429]	> 10	–	36	% inhibition to vehicle control Edema Size ± SEM [5, 6]: −5.1 ± 14.9%; Plasma Concentration ± SEM (ng/ml) Exposure = Pretreatment Time + 4 hours [5, 7]: 164 ± 89 ng/mL; % inhibition to vehicle control Edema Size ± SEM ([5]; 100 mg/kg, pretreatment time 0 hrs): −2.8 ± 14.8%; Plasma Concentration ± SEM (ng/ml) Exposure = Pretreatment Time + 4 hours [5, 10]: 401 ± 96 ng/mL; % inhibition to vehicle control Edema Size ± SEM [5, 8]: 67.1 ± 13.8%; Plasma Concentration ± SEM (ng/ml) Exposure = Pretreatment Time + 4 hours [5, 9]: 206 ± 115 ng/mL; % inhibition to vehicle control Edema Size ± SEM ([5]; 100 mg/kg, pretreatment time 2 hrs): 55.5 ± 7.9%; % inhibition to vehicle control Edema Size ± SEM ([5]; 100 mg/kg, pretreatment time 4 hrs): 35.0 ± 11.4%
